“Also recorded” adds a separate entry of the source.
Key:
[1] = test system: oxytocin receptor (OXTR); experiment: OXTR expression in skeletal muscle by real-time qRT PCR; assay type: in vivo, C57.B6 mice; conditions: old mice, s.c. daily 7 days, compared to control HBSS
Description: Old C57.B6 male mice (23-24 mo) per were administered by subcutaneous injections with oxytocin (OXT), Alk5i, a mixture of OXT and Alk5i (OXT+Alk5i) or control in vivo for 7 days, daily. The expression levels of oxytocin receptor (OXTR) were assayed by real-time qRT PCR in skeletal muscle of these mice.
OT and/or A5i or control vehicle (HBSS) was injected subcutaneously to old male C57.B6 mice (23-24 month), daily for 7 days before sacrifice. 3 month C57.B6 male mice identically injected with HBSS were used as young controls
qPCR analysis: Tissue lysates from frozen muscle, liver, and brain embedded in OCT were prepared. 40 slices of 10 μm thick slices were collected and homogenized using QIAShredder (from QIAGEN). Total RNA was extracted with RNeasy Mini Kit (from QIAGEN) according to manufacturer's instructions. Reverse transcription was performed with Superscript III First-Stand Synthesis System (from Invitrogen) according to manufacturer's instructions. For real-time PCR amplification and quantification of gene of interest, 1 ug of total cDNA was used for the initial amplification using specific primers to each gene of interest; amplification was performed with a denaturation step at 95 C for 10 minutes, followed by 40 cycles of denaturation at 95 C for 15 seconds and primer extension at 60 C for 30 s. Real-time PCR was performed using iQ™ SYBR Green Supermix (from Bio-Rad) under CFX Connect Real-Time System (Bio-Rad). Reactions were run in triplicates. Housekeeping gene actin was used as an internal control to normalize the variability in expression levels, and results were analyzed using the 2-ΔΔCT method described (50).

[2] = test system: neural stem cells (Sox-2+) in the subgranular zone of the Dentate Gyrus; experiment: Hippocampal neurogenesis in old mice (proliferating Sox-2+ neural stem cells in SGZ); assay type: in vivo; conditions: old mice with CTX muscle injury, 7 days treatment, vs HBSS control
Description: In addition to the cohort that underwent muscle injury, we also performed a study with old mice that were not injured. Young mice administered with control HBSS served as control. […] Hippocampal neurogenesis was assayed in the same mice that were studied for muscle repair above and additionally for mice that were not injured by cardiotoxin. The numbers of proliferating neural stem cells (Sox2+Ki67+) cells per DG of SGZ of hippocampus were quantified in serial brain cryosections. […] NS=non-statistically significant. […] Scale bar=100 microns. […] Data quantification: Muscle regeneration indices were calculated by counting percent de-novo myofibers with central nuclei to total nuclei in multiple images of 10-micron muscle sections for independently treated animals. Muscle fibrosis was quantified by measuring fibrotic areas on Image J. These fibrotic areas were normalized to the area of the image taken at 20× (˜14000 micron^2). Hippocampal neurogenesis (Sox2+/Ki67+, Sox2/BrdU+), p16+SGZ cell numbers and CD45+ cell numbers were quantified by counting the number of respective cells (from multiple 25-35-micron IF brain sections) and for neurogenesis and p16+ cells, extrapolating these numbers to the total thickness of the dentate gyrus. […]

[3] = test system: old mice; experiment: Four-limb hanging test; assay type: in vivo; conditions: old mice without muscle injury; for strength (average hang time): 7-day treatment; for learning: percent improvement from first to second hang time: before and after 7-day treatment
Description: To assay functional performance, Alk5i alone (low dose), OT alone, Alk5i+OT and control HBSS were dosed to old mice without muscle injury, using young mice injected with HBSS as an additional control. The four-limb hanging test was given to all mice before and after the 7-day treatment. In order to better focus the test on the learning and memory aspects (rather than strength) we examined the percent improvement of each individual animal from the first to the second test session among all studied cohorts.
A four-limb hanging test was conducted with mice before and after treatment by injection of oxytocin (OT), Alk5 inhibitor (A5i) or both, or control HBSS (young and old). The maximal hang time from two trials was considered and the percent change for each animal before and after treatment is shown. A difference is observed between young and all old cohorts (p<0.04) except for the old+Alk5i+OT where there is no statistically significant difference with the young (p=0.5) (test, 1 tail, heteroscedastic).
Four limb hanging test: Muscle strength and endurance were determined by timing how long mice can hang upside down from a wire screen, as published (27). Briefly, each mouse was placed on a 1 cm. mesh, 1 mm wire screen, 30 cm over soft bedding, inverted and timed until the mouse fell. Each animal was given two to three trials with at least a 5-minute rest between trials. Hanging index is expressed as the maximum hang time times the weight of the mouse, with longer times or greater weight for a given time considered better performance.

[4] = test system: p16; experiment: p16 protein in primary myotubes (Western Blotting); assay type: cell-based; conditions: 24 hours treatment
[5] = test system: muscle regeneration; conditions: short term subcutaneous injection; cited from earlier work
[6] = test system: p21; conditions: pERK-dependent manner; cited from earlier work
[7] = test system: p21; conditions: high dose, old mice; cited from earlier work

| Molecule | OXTR expression levels in skeletal muscle ([1]; listed as OXT) | hippocampal neurogenesis (Sox2+Ki67+ cells) [2] | strength (average hang time) [3] | learning: percent improvement from first to second hang time [3] | p16 protein levels in primary myotubes [4] | muscle regeneration in old mice [5] | CDKI p21 [6] | OXTR expression levels in skeletal muscle [1] | OXTR levels diminished by [1] [fold] | p21 levels in brain [7] |
| --- | --- | --- | --- | --- | --- | --- | --- | --- | --- | --- |
| CC[C@H](C)[C@@H]1NC(=O)[C@H](Cc2ccc(O)cc2)NC(=O)[C@@H](N)CSSC[C@@H](C(=O)N2CCC[C@H]2C(=O)N[C@@H](CC(C)C)C(=O)NCC(N)=O)NC(=O)[C@H](CC(N)=O)NC(=O)[C@H](CCC(N)=O)NC1=O [OT, Oxytocin] | had no effect; also recorded: did not have an effect on OXTR | failed to enhance the neurogenesis of the old animals | young animals outperformed all old cohorts | did not show improvement | not either molecule alone | able to restore muscle regeneration in old mice | down-modulate CDKI p21 |  |  |  |
| 2-(3-(6-Methylpyridin-2-yl)-1H-pyrazol-4-yl)-1,5-naphthyridine [Alk5i] |  | failed to enhance the neurogenesis of the old animals | young animals outperformed all old cohorts | did not show improvement | not either molecule alone |  |  | reduced the levels of the oxytocin receptor (OTR) | 2 | attenuates p21 levels in brain of old mice |

From patent publication US20200155638A1, “Enhancing Oxytocin Receptor Expression Using an Oxytocin Receptor Agonist and an Alk5 Antagonist” (The Regents of the University of California, priority 2017, published 2020)
